Data set [1] is described as follows: in vivo half-life after intravenous administration. The method, then:
To enhance the brain residency of the selected “inhibitor-ligands,” a pro-drug strategy that promotes the “trapping” of their precursors in the CNS are evaluated (Prokai et al., 2000). […] The following scheme outlines the method employed to the selected inhibitor-ligands (see FIG. 5).

The next data set relates to calpain. Kind of data set: in situ calpain inhibition in SH-SY5Y cells challenged with maitotoxin, SBDP145 by Western blot. The format is cell-based. The settings on record: SH-SY5Y neuroblastoma cells, maitotoxin 0.3 nM, read-out: IC50 for blocking SBDP145. Here is the method:
The synthesized promoiety-conjugates Compound 1 and Compound 2, will be tested for oxidation stability at 37° C. in buffer (pH 7.4), rat plasma and rat-brain homogenate to probe the kinetics of the expected conversion to the pyridinium-ion intermediates. […] Compound 1 for calpain and Compound 2 will be further tested in in situ calpain and caspase inhibition analysis in cell culture. This may be important since both proteases are intracellular, so for the in vivo uses of the inhibitor-ligands, compounds must have the ability to penetrate cells and retain potency while inside cells. We will use neuroblastoma cell line SH-SY5Y, which can be manipulated to produce calpain-activation and necrosis with a neurotoxin maitotoxin (0.3 nM, Calbiochem) or caspase activation and apoptosis with calcium-chelator EGTA (5 mM) as we have shown before (McGinnis, Wang, Gnegy, (1999) J. Neurochem. 72, 1853-1863). Importantly the protease-produced spectrin breakdown products SBDP150 and SBDP145 (with maitotoxin) and SBDP150 and SBDP120 (with EGTA) are readily produced and quantitatively detected by Western blot analysis, which parallel the formation of SBDP's in brain injury in vivo. Prototype calpain inhibitor SJA6017 blocked SBDP145 at IC50 of 0.2 μM, while caspase inhibitor z-D-DCB blocks SBDP120 at IC50 of 5 μM. […]
(Immunoblotting shows a protein as a band on a membrane.)

For data set [2] the following is noted: known calpain inhibitors; cited from earlier work.

Regarding `CC(C)C[C@@H](C=O)NC(=O)[C@@H](NS(=O)(=O)c1ccc(F)cc1)C(C)C` [SJA-6017], the in vivo half-life result in data set [1] is “ca. 11 min”. In addition, in the data set with calpain, the IC50 (usually the concentration that gives 50% inhibition) turned out to be 200 nM.

Consider `CC(=O)N[C@@H](CC(C)C)C(=O)N[C@@H](CC(C)C)C(=O)N[C@H](C=O)CCCNC(=N)N` [leupeptin, N-acetyl-Leu-Leu-argininal], for which the “crossing of cell membranes” value in data set [2] is “cross cell membranes only poorly”.

The record behind these values is patent publication US20080311036A1, “Imaging of Neural and Organ Injury or Damage” (UNIVERSITY OF FLORIDA RESEARCH FOUNDATION, INC., priority 2005, published 2008).
